Measurements reported in patent publication US20250353873A1, “COMPOUNDS AND METHODS FOR MODULATING APOE EXPRESSION” (Ionis Pharmaceuticals, Inc., priority 2024, published 2025).
Strand notation (5' to 3'): a small letter for the sugar, then the base; units joined by * are phosphorothioate-linked, units joined directly phosphodiester-linked; [ ] holds rarer units or linkages, { } end groups; capitals alone tell only the bases. [ms] = mesyl phosphoramidate linkage; e = 2'-O-(2-methoxyethyl) (MOE); k = constrained ethyl (cEt); [5mC] = 5-methylcytosine; d = 2'-deoxy (DNA)

Key:
human APOE RNA [1] = test: Activity in APOE C57BL/6NTac-Apoeem7250 knock-in mice, single ICV bolus, 8 weeks (Example 11); assay type: in vivo; conditions: for APOE RNA (% control) Cortex / APOE RNA (% control) Spinal Cord: single ICV bolus 300 μg, 8 weeks post treatment, normalized to mouse Ppia
How it was run: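 Human APOE knock-in C57BL/6NTac mice given one ICV bolus of 300 μg oligonucleotide; PBS-dosed group as control. At 8 weeks, cortex and spinal cord RNA measured by qRT-PCR (human probe RTS3073), normalized to mouse Ppia, expressed as % of PBS control.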

human APOE RNA [2] = test: Dose-dependent inhibition of human APOE RNA in differentiated SH-SY5Y cells, free uptake, 5 days (Example 5); assay type: cell-based
Method: Modified oligonucleotides selected from the examples above were tested at various doses in differentiated SH-SY5Y cells. The modified oligonucleotides were tested in a series of experiments that had the same culture conditions.
Differentiated SH-SY5Y cells plated at a density of 10,000 cells per well were treated by free uptake with various concentrations of modified oligonucleotide as specified in the tables below. […] APOE RNA levels were measured using the human primer probe set RTS3073 (described herein above). APOE RNA levels were normalized to human PPIA. Human PPIA was amplified using human primer probe set mk_cycloA_2nd (described herein above). Results are presented as percent APOE RNA, relative to the amount of APOE RNA in untreated control cells (% UTC). The half maximal inhibitory concentration (IC50) of each modified oligonucleotide was calculated in GraphPad Prism 10 (GraphPad Software, San Diego, CA) and is also presented in the tables below.

human APOE RNA [3] = test: Dose-dependent reduction of human APOE RNA in HepG2 cells, electroporation, 20,000 cells per well, average of GAPDH- and PPIA-normalized results (Example 4, Table 12); assay type: cell-based; conditions: HepG2, 20,000 cells per well; for IC50: approximately 24 hours
Method: HepG2 cells plated at a density of 20,000 cells per well were treated by electroporation with various concentrations of modified oligonucleotide as specified in the tables below. […] APOE RNA levels were measured using the human primer probe set RTS3073 (described herein above). APOE RNA levels were normalized to human GAPDH, and human PPIA. Human GAPDH was amplified using human primer probe set RTS104 (described herein above). Human PPIA was amplified using human primer probe set mk_cycloA_2nd (described herein above) The average of the GAPDH-normalized results and the PPIA-normalized results are presented in the table below as percent APOE RNA, relative to the amount of APOE RNA in untreated control cells (% UTC). The half maximal inhibitory concentration (IC50) of each modified oligonucleotide was calculated in GraphPad Prism 10 (GraphPad Software, San Diego, CA) and is also presented in the table below.

human APOE RNA [4] = test: Activity in APOE C57BL/6NTac-Apoeem7250 knock-in mice, single ICV bolus, 4 weeks (Example 10); assay type: in vivo; conditions: single ICV bolus 300 μg, 4 weeks post treatment, normalized to mouse Ppia
How it was run: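 Knock-in mice (2–4 per group) received one 300 μg ICV bolus of oligonucleotide or PBS. After four weeks, human APOE RNA in cortex and spinal cord measured by RT-qPCR (primer probe set RTS3073), normalized to mouse Ppia, expressed as % of PBS controls.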

Substance	APOE RNA (% control) Cortex (human APOE RNA [1]) [% control]	APOE RNA (% control) Spinal Cord (human APOE RNA [1]) [% control]	APOE RNA (% UTC) (human APOE RNA [2]; 5 nM, 5 days (Table 14))	APOE RNA (% UTC) (human APOE RNA [2]; 13 nM, 5 days (Table 14))	APOE RNA (% UTC) (human APOE RNA [2]; 33 nM, 5 days (Table 14))	APOE RNA (% UTC) (human APOE RNA [2]; 82 nM, 5 days (Table 14))	APOE RNA (% UTC) (human APOE RNA [2]; 205 nM, 5 days (Table 14))	APOE RNA (% UTC) (human APOE RNA [2]; 512 nM, 5 days (Table 14))	APOE RNA (% UTC) (human APOE RNA [2]; 1,280 nM, 5 days (Table 14))	APOE RNA (% UTC) (human APOE RNA [2]; 3,200 nM, 5 days (Table 14))	APOE RNA (% UTC) (human APOE RNA [2]; 8,000 nM, 5 days (Table 14))	APOE RNA (% UTC) (human APOE RNA [2]; 20,000 nM, 5 days (Table 14))	IC50 (human APOE RNA [2]; 5 days (Table 14)) [nM]	APOE RNA (% UTC) (human APOE RNA [3]; 5 nM)	APOE RNA (% UTC) (human APOE RNA [3]; 13 nM)	APOE RNA (% UTC) (human APOE RNA [3]; 33 nM)	APOE RNA (% UTC) (human APOE RNA [3]; 82 nM)	APOE RNA (% UTC) (human APOE RNA [3]; 205 nM)	APOE RNA (% UTC) (human APOE RNA [3]; 512 nM)	APOE RNA (% UTC) (human APOE RNA [3]; 1,280 nM)	also measured
1778128: modified oligonucleotide complementary to human APOE RNA (eA*e[5mC]eTeTkGkG*dT*dG[ms]dA[ms]dA*dT*d[5mC]*dT*dT*dT*dA[ms]kTeT*eA*eA; antisense) [compound 1778128]	27	25	91	51	99	63	74	32	30	40	33	23	530	96	95	83	67	60	37	24	APOE RNA (% UTC) (human APOE RNA [3]; 3,200 nM): 25 % UTC; APOE RNA (% UTC) (human APOE RNA [3]; 8,000 nM): 22 % UTC; APOE RNA (% UTC) (human APOE RNA [3]; 20,000 nM): 14 % UTC; IC50 (human APOE RNA [3]): 350 nM; APOE RNA (% control) Cortex (human APOE RNA [4]): 31 % control; APOE RNA (% control) Spinal Cord (human APOE RNA [4]): 40 % control
TezTeoGeoGksTdsGdzAdzAdzTds^mCdsTdsTdsTdsAdzTksTksAesAesAes^mCe (antisense eT[ms]eTeGkG*dT*dG[ms]dA[ms]dA[ms]dT*d[5mC]*dT*dT*dT*dA[ms]kT*kT*eA*eA*eA*e[5mC]) [Compound No. 1809814]	36	33																			reduction of human APOE RNA in the cortex (human APOE RNA [1]; APOE knock-in mouse model, 8 weeks post administration, assay of Example 11): 64%; APOE RNA (% UTC) (human APOE RNA [2]; 5 nM, 5 days (Table 13)): 91 % UTC; APOE RNA (% UTC) (human APOE RNA [2]; 13 nM, 5 days (Table 13)): 66 % UTC; APOE RNA (% UTC) (human APOE RNA [2]; 33 nM, 5 days (Table 13)): 61 % UTC; APOE RNA (% UTC) (human APOE RNA [2]; 82 nM, 5 days (Table 13)): 63 % UTC; APOE RNA (% UTC) (human APOE RNA [2]; 205 nM, 5 days (Table 13)): 47 % UTC; APOE RNA (% UTC) (human APOE RNA [2]; 512 nM, 5 days (Table 13)): 53 % UTC; APOE RNA (% UTC) (human APOE RNA [2]; 1,280 nM, 5 days (Table 13)): 39 % UTC; APOE RNA (% UTC) (human APOE RNA [2]; 3,200 nM, 5 days (Table 13)): 39 % UTC; APOE RNA (% UTC) (human APOE RNA [2]; 8,000 nM, 5 days (Table 13)): 41 % UTC; APOE RNA (% UTC) (human APOE RNA [2]; 20,000 nM, 5 days (Table 13)): 33 % UTC; IC50 (human APOE RNA [2]; 5 days (Table 13)): 550 nM
1785617: modified oligonucleotide complementary to human APOE RNA (k[5mC]*dT[ms]dT[ms]kG*dG[ms]kT*dG[ms]dA[ms]dA[ms]dT[ms]d[5mC]*dT*dT*dT*dA*dT*kT*kA*dA[ms]kA; antisense) [compound 1785617]	30	213	118	116	84	71	59	56	29	21	22	10	520	95	93	82	68	55	32	23	APOE RNA (% UTC) (human APOE RNA [3]; 3,200 nM): 16 % UTC; APOE RNA (% UTC) (human APOE RNA [3]; 8,000 nM): 20 % UTC; APOE RNA (% UTC) (human APOE RNA [3]; 20,000 nM): 6 % UTC; IC50 (human APOE RNA [3]): 260 nM; APOE RNA (% control) Cortex (human APOE RNA [4]): 39 % control; APOE RNA (% control) Spinal Cord (human APOE RNA [4]): 38 % control
